Where “and” joins values, the source holds several entries; their conditions need not be identical. Identical values can stand only once. Entries after “also recorded” stand apart in the source; their conditions may differ.
Key:
[1] = design: method as in Reviewer #3; settings: as stated by Reviewer #3 in the peer-review file; ref Reviewer #3; cited from earlier work
pJNK = assay: Immunoblot of phospho-JNK in ischemic mouse brain; assay type: in vivo
Text: (§1) Cytosol and crude membrane protein
(§2) Expressions of Na+-K+ ATPase
(§3) respectively. d Densitometric analyses of immunoblots.

HEK-293 cells = assay: 86Rb+ uptake assay in empty-vector-transfected HEK-293 cells; assay type: cell-based, human; design: key: 86Rb+ uptake in CPM per mg protein; settings: Empty V + 1a (10 µM), replicates
Experimental: Thirty-six hours post transfection, cells were exposed for 30 min to either control isotonic conditions or hypotonic low [Cl^−] conditions (to activate the SPAK/OSR1 pathway), and then treated for an additional 30 min in the same conditions with the indicated ZT-1a concentrations in the presence of 1 mM ouabain and 0.1 mM bumetanide. Ten-minute ^86Rb^+ uptake values were quantified by scintillation counting, normalized per mg protein for each condition, and plotted for both isotonic and hypotonic conditions. ***p < 0.001; **p < 0.01; *p < 0.05; ns—nonsignificant [by one-way ANOVA with post hoc testing (n = 6, error bars represent the mean ± SEM)]. b ^86Rb^+ uptake assays in the presence of ZT-1a measure transport activity of NKCC1. […] Thirty-six hours post transfection, cells were exposed for 30 min to either control isotonic conditions or hypotonic low [Cl^−] conditions (to activate the SPAK/OSR1 pathway), and then treated in the same conditions for an additional 30 min with 10 µM ZT-1a or 0.1 mM bumetanide (Bum) in the presence of 1 mM ouabain (Na^+/K^+-ATPase inhibitor). ^86Rb^+ uptake was allowed to proceed for 10 min and was then quantified by scintillation counting. ^86Rb^+ uptake CPMs were normalized per mg protein and plotted for both isotonic and hypotonic conditions. […] Thirty-six hours post transfection, cells were exposed for 30 min to either control isotonic conditions or hypotonic low [Cl^−] conditions (to activate the SPAK/OSR1 pathway), and then treated for an additional 30 min in the same conditions with the indicated ZT-1a concentrations in the presence of 1 mM ouabain. Ten-minute ^86Rb^+ uptake values were quantified by scintillation counting, normalized per mg protein for each condition, and plotted for both isotonic and hypotonic conditions. ***p < 0.001; **p < 0.01; *p < 0.05; ns—nonsignificant [by one-way ANOVA with post hoc testing (n = 6, error bars represent the mean ± SEM)].
This stimulating medium was then removed and replaced with isotonic medium containing inhibitors plus 2 µCi/ml ^86Rb^+. After incubation for 10 min at 37 °C, cells were rapidly washed three times with the respective ice-cold nonradioactive medium. Washed cells were lysed in 300 µl of ice-cold lysis buffer and ^86Rb^+ uptake was quantitated by liquid scintillation counting (PerkinElmer).

KCC3 pThr991 = assay: Immunoblot of KCC site 1 phosphorylation (KCC3 Thr991) in HEK-293 cells transfected with FLAG-KCC3; assay type: cell-based, human; settings: for KCC3 pThr991 / KCC3: Fig S4b
tSPAK tOSR1 = assay: Immunoblot of total SPAK/OSR1 in ischemic mouse brain membrane and cytosol fractions; assay type: in vivo; settings: Cytosol; IL; single samples
[2] = system: mouse model of ischemic stroke (tMCAO); assay: Adhesive-removal test after tMCAO; assay type: in vivo; settings: for Adhesive removal time: Fig 7c, individual mice #1-#7
pGSK-3α/β = assay: Immunoblot of phospho-GSK-3α/β in ischemic mouse brain; assay type: in vivo; settings: for pGSK-3αβ/GAPDH (fold veh-CL): Cytosol; for pGSK-3αβ/GAPDH (fold veh-CL) / pGSK-3αβ/Na K pump (fold veh-CL): Fig S4d; for pGSK-3αβ/Na K pump (fold veh-CL): Membrane
Text: as §1, §2, §3

[3] = system: pSPAK (pSer373)/pOSR1 (pSer325); assay: Immunoblot of pSPAK/pOSR1 in ischemic mouse brain membrane fractions; settings: for SPAK / Na-K pumb / pSer373 / SPAK: Fig 8, individual samples; for pSPAK pOSR1/Na K pump (fold veh-CL): Membrane, single samples
KCC3 pThr1048 = assay: Immunoblot of KCC site 2 phosphorylation (KCC3 Thr1048) in HEK-293 cells transfected with FLAG-KCC3; assay type: cell-based, human; settings: Fig S4b
KCC1 pThr927/pThr983 = assay: Choroid plexus KCC1 phospho-IP/immunoblot in rat IVH model; assay type: in vivo
NKCC1 pThr203/207/212 = assay: Choroid plexus NKCC1 immunoblot in rat IVH model; assay type: in vivo
pKCC3 pThr991/pThr1048 = assay: Immunoblot of pKCC3 in ischemic mouse brain membrane fractions; settings: for KCC3 / Na-K pumb / pThr991 / KCC3 / pThr991 / Na-K pumb / pThr1048 / KCC3 / pThr1048 / Na-K pumb: Fig 8, individual samples
[4] = compared with vehicle-control mice
[5] = post-stroke ZT-1a 5 mg/kg, 24 h reperfusion
[6] = rat CPe 48 h post IVH + 1a, replicates

Cc1cc(C(C#N)c2ccc(Cl)cc2)c(Cl)cc1NC(=O)c1cc(Cl)ccc1O (stereo not shown) [ZT-1a, 5-chloro-N-(5-chloro-4-((4-chlorophenyl)(cyano)methyl)-2-methylphenyl)-2-hydroxybenzamide]
logP [1]: > 6 | pJNK/GAPDH (fold veh-CL) (pJNK; Cytosol, CL, Fig S4d): 1.00 fold veh-CL and 1.48 fold veh-CL and 0.87 fold veh-CL and 0.76 fold veh-CL | pJNK/Na K pump (fold veh-CL) (pJNK; Membrane, IL, Fig S4d): 2.05 fold veh-CL and 1.64 fold veh-CL and 1.81 fold veh-CL and 1.40 fold veh-CL | p-JNK in ischemic brains (pJNK; ZT-1a 5.0 mg/kg): no marked inhibition | 86Rb+ uptake (HEK-293 cells; Fig 3a, Hypotonic low Cl-, ouabain + bumetanide): 508.8 and 600.6 and 529.6 and 455.1 and 564.1 and 478.5 | 86Rb+ uptake (HEK-293 cells; Fig 3a, Isotonic control, ouabain + bumetanide): 1279.7 and 1082.2 and 1111.5 and 1436.1 and 1321.4 and 1109.8 | 86Rb+ uptake (HEK-293 cells; Fig 3b, Hypotonic low Cl-, ouabain): 1181.7 and 899.6 and 1029.4 and 1120.4 and 1269.1 and 946.3 | 86Rb+ uptake (HEK-293 cells; Fig 3b, Isotonic control, ouabain): 905.2 and 735.8 and 874.1 and 801.5 and 957.4 and 886.4 | inhibition at 3 µM (KCC3 pThr991; Homo sapiens, HEK293, 3 µM, HEK-293 cells, n = 4, read-out: inhibition of phosphorylation of KCC sites 1/2): 65 to 77% | KCC3 pThr991 / KCC3 (KCC3 pThr991; ZT-1a 0.3 uM): 0.89 and 0.932 and 0.861 and 0.828 | KCC3 pThr991 / KCC3 (KCC3 pThr991; ZT-1a 1 uM): 0.63 and 0.651 and 0.702 and 0.601 | KCC3 pThr991 / KCC3 (KCC3 pThr991; ZT-1a 3 uM): 0.65 and 0.601 and 0.553 and 0.517 | tSPAK tOSR1/GAPDH (fold veh-CL) (tSPAK tOSR1): 1.10 fold veh-CL and 1.64 fold veh-CL and 1.23 fold veh-CL and 1.65 fold veh-CL and 0.87 fold veh-CL | Adhesive removal time ([2]; Day 1): 15 seconds and 27 seconds and 70 seconds and 120 seconds and 28 seconds (2×) and 85 seconds | Adhesive removal time ([2]; Day 3): 26 s and 16 s and 65 s and 29 s and 9 s and 41 s and 62 s | Adhesive removal time ([2]; Day 5): 36 s and 27 s and 56 s and 35 s and 15 s and 28 s and 24 s | Adhesive removal time ([2]; Day 7): 8 seconds (2×) and 14 seconds and 57 seconds and 19 seconds and 16 seconds and 28 seconds | Adhesive removal time ([2]; Day -1 (baseline)): 25 seconds and 8 seconds and 7 seconds (2×) and 11 seconds and 13 seconds and 22 seconds | adhesive contact and removal tests ([2]; ZT-1a 5.0 mg/kg, vs vehicle-control mice): significantly improved motor function | pGSK-3αβ/GAPDH (fold veh-CL) (pGSK-3α/β; CL): 1.03 fold veh-CL and 0.85 fold veh-CL and 1.10 fold veh-CL | pGSK-3αβ/GAPDH (fold veh-CL) (pGSK-3α/β; IL): 1.40 fold veh-CL and 1.29 fold veh-CL and 1.07 fold veh-CL | pGSK-3αβ/Na K pump (fold veh-CL) (pGSK-3α/β; CL): 1.04 fold veh-CL and 0.96 fold veh-CL and 1.12 fold veh-CL | pGSK-3αβ/Na K pump (fold veh-CL) (pGSK-3α/β; IL): 0.94 fold veh-CL and 0.88 fold veh-CL and 0.90 fold veh-CL | GSK-3β (p-GSK-3alpha/beta) phosphorylation in ischemic brain (pGSK-3α/β; ZT-1a-treated ischemic mouse brain, 5.0 mg/kg i.p., 24 h post reperfusion, 5 mg/kg): not inhibited; also recorded: no marked inhibition | SPAK / Na-K pumb ([3]; CL hemisphere): 0.981 and 0.854 and 0.987 and 1.037 and 0.972 and 0.893 | pSer373 / SPAK ([3]; CL hemisphere): 1.177 and 1.25 and 1.197 and 1.217 and 1.153 and 1.09 | SPAK / Na-K pumb ([3]; IL hemisphere): 0.919 and 0.978 and 0.855 and 0.931 and 0.95 and 0.819 | pSer373 / SPAK ([3]; IL hemisphere): 0.773 and 0.739 and 0.598 and 0.674 and 0.62 and 0.668 | pSPAK pOSR1/Na K pump (fold veh-CL) ([3]; CL): 1.23 fold veh-CL and 0.84 fold veh-CL and 1.17 fold veh-CL and 1.58 fold veh-CL and 1.64 fold veh-CL | pSPAK pOSR1/Na K pump (fold veh-CL) ([3]; IL): 1.24 fold veh-CL and 0.94 fold veh-CL and 0.88 fold veh-CL and 1.08 fold veh-CL and 0.87 fold veh-CL | reduction of ischemia-induced elevation of pSPAK [3, 4]: 55–65% | ischemia-induced increase of pSPAK/pOSR1 [3, 5]: prevented | KCC3 pThr1048 / KCC3 (KCC3 pThr1048; ZT-1a 0.3 uM): 0.52 and 0.601 and 0.501 and 0.473 | KCC3 pThr1048 / KCC3 (KCC3 pThr1048; ZT-1a 3 uM): 0.31 and 0.301 and 0.253 and 0.205 | KCC1 pThr983 / Actin (KCC1 pThr927/pThr983; [6]): 0.273 and 0.737 and 0.782 and 0.302 and 0.649 and 0.721 | KCC1 pThr927 / Actin (KCC1 pThr927/pThr983; rat CPe 48 h post IVH + 1a, replicates (Fig 4 source data)): 0.027 and 0.029 and 0.034 and 0.025 and 0.037 and 0.024 | reduction of post-IVH KCC1 phosphorylation at Thr927 (KCC1 pThr927/pThr983; rat CPe, ICV ZT-1a): 12 fold | reduction of post-IVH KCC1 phosphorylation at Thr983 (KCC1 pThr927/pThr983; rat CPe, ICV ZT-1a): 3.4 fold | NKCC1 pThr203/207/212 / Actin (NKCC1 pThr203/207/212; [6]): 1.03 and 0.7 and 0.5 and 0.9 and 0.81 and 0.55 | reduction of IVH-induced expression of pNKCC1 in CPe (NKCC1 pThr203/207/212; rat, ICV ZT-1a, 48 h post IVH, n = 3): 69 ± 4.3% | KCC3 / Na-K pumb (pKCC3 pThr991/pThr1048; CL hemisphere): 1.336 and 1.197 and 1.267 and 1.158 and 1.265 and 1.361 | pThr991 / KCC3 (pKCC3 pThr991/pThr1048; CL hemisphere): 1.218 and 1.115 and 1.236 and 1.366 and 1.064 and 1.128 | pThr991 / Na-K pumb (pKCC3 pThr991/pThr1048; CL hemisphere): 1.627 and 1.334 and 1.565 and 1.429 and 1.509 and 1.618 | pThr1048 / KCC3 (pKCC3 pThr991/pThr1048; CL hemisphere): 1.138 and 0.971 and 0.993 and 1.217 and 1.116 and 0.937 | pThr1048 / Na-K pumb (pKCC3 pThr991/pThr1048; CL hemisphere): 1.52 and 1.162 and 1.258 and 1.37 and 1.22 and 1.531 | KCC3 / Na-K pumb (pKCC3 pThr991/pThr1048; IL hemisphere): 1.177 and 1.337 and 1.176 and 1.207 and 1.288 and 1.143 | pThr991 / KCC3 (pKCC3 pThr991/pThr1048; IL hemisphere): 0.804 and 0.867 and 0.759 and 0.638 and 0.69 and 0.743 | pThr991 / Na-K pumb (pKCC3 pThr991/pThr1048; IL hemisphere): 0.946 and 0.897 and 1.023 and 0.942 and 0.889 and 0.849 | pThr1048 / KCC3 (pKCC3 pThr991/pThr1048; IL hemisphere): 0.646 and 0.719 and 0.618 and 0.673 and 0.737 and 0.686 | pThr1048 / Na-K pumb (pKCC3 pThr991/pThr1048; IL hemisphere): 0.76 and 0.987 and 0.854 and 0.792 and 0.949 and 0.785 | reduction of ischemia-induced elevation of pKCC3 (pKCC3 pThr991/pThr1048; [4]): 30% | ischemia-induced increase of pKCC3 (pKCC3 pThr991/pThr1048; [5]): prevented
